molecular target: T1, CaMKIIδ (Homo sapiens, UniProt Q13557); test: In vitro CaMKIIδ activity (inhibition) assay, coupled assay measuring ADP released; format: biochemical; conditions: full length C-terminal His/Gln tagged CaMKIIδ construct, 16 nM; peptide substrate AC3; 25° C.
T1 construct: His/Gln tag (C)
Method: An exemplary procedure for the in vitro CaMKIIδ inhibition assay, which can be used to determine the inhibitory action of compounds of the invention toward CaMKII, follows. The procedure is taken from Chao L H, et al., (2010) Nat Struct Mol Biol. 17(3): 264-272, which is incorporated herein by reference in its entirety.
The inhibition of CaMKII activity was evaluated using a coupled assay measuring ADP released following ATP hydrolysis and phosphor-transfer to the peptide substrate AC3 (KKALHRQETVDAL; SEQ ID NO: 1) (1). A full length, C-terminal His/Gln tagged CaMKIIδ construct was used (sequence in Table 2 below).
Compounds were added in 5 uL volume to wells in UV transparent 96-well plates (½ area well size). The final compound concentrations tested ranged from 0.5 nM to 10 uM). Assays were performed in duplicate. CaMKIIδ is added to at a final concentration of 16 nM to a mixture containing 100 mM Tris (pH 7.5), 150 mM KCl, 0.27 mM EGTA, 1.3 mM PEP, 0.2 mg/ml AC3, 6.9% (v/v) PK/LDH mixture (Sigma P0294), 0.38 mM NADH and kept on ice. 72 uL of the enzyme mixture was added to the wells containing compounds and the plate was shaken briefly and kept on ice. The assay was initiated by adding 23 uL of a mixture containing 100 mM Tris (pH 7.5), 150 mM KCl, 1.7 mM CaCl2, 48 mM MgCl2, 0.35 mM ATP and 6.7 ug/mL calmodulin. The rate of ADP released was measured as the rate of absorbance decrease at […] at 25° C. and plotted against the log of the compound concentration (FIG. 1). IC50 data were fitted using GraphPad Prism software.

T1 sequence (Q13557 whole entry, looked up): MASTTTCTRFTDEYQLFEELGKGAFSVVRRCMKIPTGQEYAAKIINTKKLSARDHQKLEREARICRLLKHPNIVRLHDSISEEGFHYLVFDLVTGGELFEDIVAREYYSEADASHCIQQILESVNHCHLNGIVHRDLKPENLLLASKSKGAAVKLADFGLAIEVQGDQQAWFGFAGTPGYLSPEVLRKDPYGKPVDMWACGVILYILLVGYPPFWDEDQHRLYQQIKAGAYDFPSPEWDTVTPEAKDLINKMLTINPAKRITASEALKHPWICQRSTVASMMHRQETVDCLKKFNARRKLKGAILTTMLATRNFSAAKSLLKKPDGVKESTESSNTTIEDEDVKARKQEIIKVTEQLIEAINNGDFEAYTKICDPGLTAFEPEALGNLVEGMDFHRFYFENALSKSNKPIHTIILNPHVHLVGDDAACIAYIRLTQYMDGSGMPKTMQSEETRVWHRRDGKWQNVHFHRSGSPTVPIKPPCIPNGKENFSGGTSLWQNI

Row | SMILES | IC50 [nM]
1 | NCCOc1cccc(-c2ccnc3[nH]c4ccccc4c23)c1 [Compound I-9, 2-(3-(9H-pyrido[2,3-b]indol-4-yl)phenoxy)ethanamine] | ≤ 50
2 | Cc1ccc2[nH]c3nccc(-c4cccc(NCCN)c4)c3c2c1 [Compound I-13, N1-(3-(6-methyl-9H-pyrido[2,3-b]indol-4-yl)phenyl)ethane-1,2-diamine] | ≤ 50
3 | NCc1cccc(-c2ccnc3[nH]c4ccccc4c23)c1 [Compound I-3, (3-(9H-pyrido[2,3-b]indol-4-yl)phenyl)methanamine] | ≥ 1000
4 | Cc1ccc2c(c1)[nH]c1nccc(-c3cccc(NCCN)c3)c12 [Compound I-11] | ≤ 50
5 | N=C(N)NCc1cccc(-c2ccnc3[nH]c4ccccc4c23)c1 [Compound I-5, 1-(3-(9H-pyrido[2,3-b]indol-4-yl)benzyl)guanidine] | 250 to 1000
6 | c1cc(-c2ccnc3[nH]c4ccccc4c23)cc(N2CCNCC2)c1 [Compound I-1, 4-(3-(piperazin-1-yl)phenyl)-9H-pyrido[2,3-b]indole] | 50 to 250
7 | COc1ccc2c(c1)[nH]c1nccc(-c3cccc(NCCN)c3)c12 [Compound I-12, N1-(3-(7-methoxy-9H-pyrido[2,3-b]indol-4-yl)phenyl)ethane-1,2-diamine] | ≤ 50
8 | NCCNc1cccc(-c2ccnc3[nH]c4ccccc4c23)c1 [Compound I-7, N1-(3-(9H-pyrido[2,3-b]indol-4-yl)phenyl)ethane-1,2-diamine] | ≤ 50
9 | NCCCOc1cccc(-c2ccnc3[nH]c4ccccc4c23)c1 [Compound I-10, 3-(3-(9H-pyrido[2,3-b]indol-4-yl)phenoxy)propan-1-amine] | ≤ 50
10 | NCCCNc1cccc(-c2ccnc3[nH]c4ccccc4c23)c1 [Compound I-8, N1-(3-(9H-pyrido[2,3-b]indol-4-yl)phenyl)propane-1,3-diamine] | ≤ 50
11 | c1cc(-c2ccnc3[nH]c4ccccc4c23)cc(-n2ccnc2)c1 [Compound I-2, 4-(3-(1H-imidazol-1-yl)phenyl)-9H-pyrido[2,3-b]indole] | ≥ 1000
12 | Nc1cccc(-c2ccnc3[nH]c4ccccc4c23)c1 [Compound I-6, 3-(9H-pyrido[2,3-b]indol-4-yl)aniline] | 50 to 250
13 | NCCNc1cccc(-c2ccnc3[nH]c4ccc(Cl)cc4c23)c1 [Compound I-14, N1-(3-(6-chloro-9H-pyrido[2,3-b]indol-4-yl)phenyl)ethane-1,2-diamine] | ≤ 50
14 | N=C(N)Nc1cccc(-c2ccnc3[nH]c4ccccc4c23)c1 [Compound I-4, 1-(3-(9H-pyrido[2,3-b]indol-4-yl)phenyl)guanidine] | 50 to 250
